Test results published in ChEMBL document CHEMBL3044676, “Effect of Antibiotics on Formation of Aerial Mycelium and Production of Phytotoxins in Streptomyces spp” (2003).
Active and inactive are the calls of the source. No cut-off for these calls is given here.

Legend:
[1] = system: Streptomyces scabiei; assay: Reduction in thaxtomin A production in Streptomyces scabiei ATCC 4917314 at 1.2 ug/ml after 5 days relative to untreated control; type: functional; parameters: scale not given: the % may be the effect or the level left
[2] = system: Streptomyces acidiscabies; assay: Antimicrobial activity against Streptomyces acidiscabies ATCC 4900315 assessed as inhibition of growth at 4 ug/disk after 5 days by paper disk method; type: functional; settings: ATCC 4900315, 120 h, read-out: DIZ
[3] = system: Streptomyces alboniger; assay: Antimicrobial activity against Streptomyces alboniger IFO 12738 assessed as inhibition of aerial mycelial growth at 0.04 ug/disk after 5 days by paper disk method; type: functional, organism-based
[4] = system: Streptomyces scabiei; assay: Reduction in concanamycins A and B production in Streptomyces scabiei ATCC 4917314 at 1.2 ug/ml after 5 days relative to untreated control; type: functional; parameters: scale not given: the % may be the effect or the level left
[5] = system: Streptomyces alboniger; assay: Antimicrobial activity against Streptomyces alboniger IFO 12738 assessed as inhibition of aerial mycelial growth at 4 ug/disk after 5 days by paper disk method; type: functional
[6] = system: Streptomyces acidiscabies; assay: Reduction in thaxtomin A production in Streptomyces acidiscabies ATCC 4900315 at 1.5 ug/ml after 5 days relative to untreated control; type: functional; parameters: scale not given: the % may be the effect or the level left
[7] = system: Streptomyces acidiscabies; assay: Antimicrobial activity against Streptomyces acidiscabies ATCC 4900315 assessed as inhibition of aerial mycelial growth at 4 ug/disk after 5 days by paper disk method; type: functional; settings: for zone of inhibition at 4 µg/disc: ATCC 4900315, 120 h, read-out: DIZ
[8] = system: Streptomyces acidiscabies; assay: Antimicrobial activity against Streptomyces acidiscabies ATCC 4900315 assessed as inhibition of aerial mycelial growth at 0.04 ug/disk after 5 days by paper disk method; type: functional
[9] = system: Streptomyces scabiei; assay: Antimicrobial activity against Streptomyces scabiei ATCC 4917314 assessed as inhibition of aerial mycelial growth at 0.40 ug/disk after 5 days by paper disk method; type: functional; settings: for zone of inhibition at 0.4 µg/disc: ATCC 4917314, 120 h, read-out: DIZ
[10] = system: Streptomyces scabiei; assay: Antimicrobial activity against Streptomyces scabiei ATCC 4917314 assessed as inhibition of aerial mycelial growth at 0.04 ug/disk after 5 days by paper disk method; type: functional; settings: for zone of inhibition at 0.04 µg/disc: ATCC 4917314, 120 h, read-out: DIZ
[11] = system: Streptomyces scabiei; assay: Antimicrobial activity against Streptomyces scabiei ATCC 4917314 assessed as inhibition of growth at 4 ug/disk after 5 days by paper disk method; type: functional; settings: ATCC 4917314, 120 h, read-out: DIZ
[12] = system: Streptomyces alboniger; assay: Antimicrobial activity against Streptomyces alboniger IFO 12738 assessed as inhibition of aerial mycelial growth at 0.4 ug/disk after 5 days by paper disk method; type: functional
[13] = system: Streptomyces scabiei; assay: Antimicrobial activity against Streptomyces scabiei ATCC 4917314 assessed as inhibition of aerial mycelial growth at 4 ug/disk after 5 days by paper disk method; type: functional; settings: for zone of inhibition at 4 µg/disc: ATCC 4917314, 120 h, read-out: DIZ
[14] = system: Streptomyces acidiscabies; assay: Reduction in concanamycins A and B production in Streptomyces acidiscabies ATCC 4900315 at 1.5 ug/ml after 5 days relative to untreated control; type: functional, organism-based
[15] = system: Streptomyces scabiei; assay: Antimicrobial activity against Streptomyces scabiei ATCC 4917314 assessed as mycelial weigh change at 1.2 ug/ml after 5 days relative to untreated control; type: functional
[16] = system: Streptomyces acidiscabies; assay: Antimicrobial activity against Streptomyces acidiscabies ATCC 4900315 assessed as inhibition of aerial mycelial growth at 0.4 ug/disk after 5 days by paper disk method; type: functional; settings: for zone of inhibition at 0.4 µg/disc: ATCC 4900315, 120 h, read-out: DIZ
[17] = system: Streptomyces acidiscabies; assay: Antimicrobial activity against Streptomyces acidiscabies ATCC 4900315 assessed as mycelial weigh change at 1.5 ug/ml after 5 days relative to untreated control; type: functional
[18] = system: Streptomyces scabiei; assay: Reduction in concanamycins A and B production in Streptomyces scabiei ATCC 4917314 at 3.6 ug/ml after 5 days relative to untreated control; type: functional; parameters: scale not given: the % may be the effect or the level left
[19] = system: Streptomyces acidiscabies; assay: Antimicrobial activity against Streptomyces acidiscabies ATCC 4900315 assessed as mycelial weigh change at 0.45 ug/ml after 5 days relative to untreated control; type: functional
[20] = system: Streptomyces acidiscabies; assay: Reduction in thaxtomin A production in Streptomyces acidiscabies ATCC 4900315 at 0.45 ug/ml after 5 days relative to untreated control; type: functional; parameters: scale not given: the % may be the effect or the level left
[21] = system: Streptomyces acidiscabies; assay: Reduction in concanamycins A and B production in Streptomyces acidiscabies ATCC 4900315 at 0.45 ug/ml after 5 days relative to untreated control; type: functional, organism-based
[22] = system: Streptomyces scabiei; assay: Antimicrobial activity against Streptomyces scabiei ATCC 4917314 assessed as inhibition of growth at 0.4 ug/disk after 5 days by paper disk method; type: functional
[23] = system: Streptomyces scabiei; assay: Reduction in thaxtomin A production in Streptomyces scabiei ATCC 4917314 at 3.6 ug/ml after 5 days relative to untreated control; type: functional; parameters: scale not given: the % may be the effect or the level left
[24] = system: Streptomyces scabiei; assay: Antimicrobial activity against Streptomyces scabiei ATCC 4917314 assessed as mycelial weigh change at 3.6 ug/ml after 5 days relative to untreated control; type: functional
[25] = system: Streptomyces scabiei; assay: Growth stimulation of Streptomyces scabiei ATCC 4917314 at 0.4 ug/disk after 5 days by paper disk method; type: functional; settings: ATCC 4917314, 120 h, read-out: DIZ
[26] = system: Streptomyces scabiei; assay: Growth stimulation of Streptomyces scabiei ATCC 4917314 at 4 ug/disk after 5 days by paper disk method; type: functional
[27] = system: Streptomyces alboniger; assay: Antimicrobial activity against Streptomyces alboniger IFO 12738 assessed as inhibition of growth at 4 ug/disk after 5 days by paper disk method; type: functional; settings: IFO 12738, 120 h, read-out: DIZ
[28] = system: Streptomyces acidiscabies; assay: Antimicrobial activity against Streptomyces acidiscabies ATCC 4900315 assessed as inhibition of growth at 0.4 ug/disk after 5 days by paper disk method; type: functional; settings: ATCC 4900315, 120 h, read-out: DIZ

Q: For `CN(C)[C@@H]1C(O)=C(C(N)=O)C(=O)[C@@]2(O)C(O)=C3C(=O)c4c(O)ccc(Cl)c4[C@@](C)(O)[C@H]3C[C@@H]12` [CHLORTETRACYCLINE], which Activity [1] is on record?
A: 0.6%

Q: And the zone of inhibition at 4 µg/disc [2]?
A: 16 mm

Q: What about the “diameter of the inhibition zone (DIZ)” value [3] of the same molecule?
A: inactive

Q: And the Activity [4]?
A: 0.1%

Q: And the “diameter of the inhibition zone (DIZ)” value [5]?
A: inactive

Q: What about the Activity [6] of the same molecule?
A: <10%

Q: And the zone of inhibition at 4 µg/disc [7]?
A: 35 mm

Q: What about the zone of inhibition at 0.04 µg/disc ([8]; ATCC 4900315, 120 h, read-out: DIZ) of the same molecule?
A: 11 mm

Q: And the zone of inhibition at 0.4 µg/disc [9]?
A: 20 mm

Q: And the zone of inhibition at 0.04 µg/disc [10]?
A: 11 mm

Q: And the zone of inhibition at 4 µg/disc [11]?
A: 19 mm

Q: What about the “diameter of the inhibition zone (DIZ)” value [12] of the same molecule?
A: inactive

Q: And the zone of inhibition at 4 µg/disc [13]?
A: 27 mm

Q: What about the Activity [14] of the same molecule?
A: Below limit of detection

Q: And the Activity [15]?
A: 2.1%

Q: What about the zone of inhibition at 0.4 µg/disc [16] of the same molecule?
A: 19 mm

Q: And the Activity [17]?
A: 6.8%

Q: For `CN[C@@H]1[C@H](O)[C@H](NC)[C@H]2O[C@@]3(O)C(=O)C[C@@H](C)O[C@H]3O[C@@H]2[C@H]1O` [SPECTINOMYCIN], which Activity [18] is on record?
A: 1.1%

Q: And the Activity [19]?
A: 8.31%

Q: And the “diameter of the inhibition zone (DIZ)” value [3]?
A: inactive

Q: And the Activity [20]?
A: 59%

Q: And the zone of inhibition at 4 µg/disc ([5]; IFO 12738, 120 h, read-out: DIZ)?
A: 35 mm

Q: What about the Activity [21] of the same molecule?
A: Below limit of detection

Q: And the zone of inhibition at 4 µg/disc [7]?
A: 31 mm

Q: What about the “diameter of the inhibition zone (DIZ)” value [8] of the same molecule?
A: inactive

Q: And the zone of inhibition at 0.4 µg/disc [9]?
A: 11 mm

Q: And the zone of inhibition at 0.04 µg/disc [10]?
A: 27 mm

Q: And the “diameter of the inhibition zone (DIZ)” value [12]?
A: inactive

Q: What about the “diameter of the inhibition zone (DIZ)” value [22] of the same molecule?
A: inactive

Q: And the zone of inhibition at 4 µg/disc [13]?
A: 19 mm

Q: And the Activity [23]?
A: 0.8%

Q: What about the Activity [24] of the same molecule?
A: 5.01%

Q: And the zone of inhibition at 0.4 µg/disc [16]?
A: 20 mm

Q: What does the source list for `N[C@@H]1CONC1=O` [CYCLOSERINE]?
A: diameter of the inhibition zone (DIZ) [3]: inactive; diameter of the inhibition zone (DIZ) [5]: inactive; diameter of the inhibition zone (DIZ) [7]: inactive; zone of inhibition at 0.4 µg/disc [25]: 24 mm; diameter of the inhibition zone (DIZ) [8]: inactive; diameter of the inhibition zone (DIZ) [9]: inactive; diameter of the inhibition zone (DIZ) [10]: inactive; diameter of the inhibition zone (DIZ) [12]: inactive; diameter of the inhibition zone (DIZ) [13]: inactive; Activity [26]: 44 mm; diameter of the inhibition zone (DIZ) [16]: inactive

Q: Which zone of inhibition at 4 µg/disc [2] does the source give for `NC[C@H]1O[C@H](O[C@H]2[C@H](O)[C@@H](O[C@H]3O[C@H](CO)[C@@H](O)[C@H](N)[C@H]3O)[C@H](N)C[C@@H]2N)[C@H](O)[C@@H](O)[C@@H]1O` [KANAMYCIN] here?
A: 18 mm

Q: What about the “diameter of the inhibition zone (DIZ)” value [3] of the same molecule?
A: inactive

Q: What about the “diameter of the inhibition zone (DIZ)” value [5] of the same molecule?
A: inactive

Q: What about the zone of inhibition at 4 µg/disc [27] of the same molecule?
A: 14 mm

Q: What about the “diameter of the inhibition zone (DIZ)” value [7] of the same molecule?
A: inactive

Q: What about the “diameter of the inhibition zone (DIZ)” value [8] of the same molecule?
A: inactive

Q: And the zone of inhibition at 0.4 µg/disc [9]?
A: 10 mm

Q: And the “diameter of the inhibition zone (DIZ)” value [10]?
A: inactive

Q: What about the zone of inhibition at 0.4 µg/disc [28] of the same molecule?
A: 12 mm

Q: What about the zone of inhibition at 4 µg/disc [11] of the same molecule?
A: 13 mm

Q: And the “diameter of the inhibition zone (DIZ)” value [12]?
A: inactive

Q: What about the zone of inhibition at 4 µg/disc [13] of the same molecule?
A: 18 mm

Q: And the “diameter of the inhibition zone (DIZ)” value [16]?
A: inactive

Q: What does the source list for `CO/N=C(\C(=O)N[C@@H]1C(=O)N2C(C(=O)O)=C(COC(C)=O)CS[C@H]12)c1csc(N)n1` [CEFOTAXIME]?
A: diameter of the inhibition zone (DIZ) [3]: inactive; diameter of the inhibition zone (DIZ) [5]: inactive; zone of inhibition at 4 µg/disc [7]: 15 mm; diameter of the inhibition zone (DIZ) [8]: inactive; diameter of the inhibition zone (DIZ) [9]: inactive; diameter of the inhibition zone (DIZ) [10]: inactive; diameter of the inhibition zone (DIZ) [12]: inactive; diameter of the inhibition zone (DIZ) [13]: inactive; zone of inhibition at 4 µg/disc ([26]; Streptomyces scabiei, ATCC 4917314, 120 h, read-out: DIZ): 22 mm; diameter of the inhibition zone (DIZ) [16]: inactive
